Test results from paper PMC9057277 (RSC Advances, 2020).

Experiments:
[1] = molecular target: T1, recombinant human COX-2 (Homo sapiens, UniProt P35354); test: COX Fluorescent Inhibitor Screening Assay Kit, COX-2; assay type: biochemical; settings: for Selectivity index: IC50 (COX-1)/IC50 (COX-2)
T1 construct: purchased Cayman Chemical, Ann Arbor, MI 700100
T1 sequence (P35354 18-604): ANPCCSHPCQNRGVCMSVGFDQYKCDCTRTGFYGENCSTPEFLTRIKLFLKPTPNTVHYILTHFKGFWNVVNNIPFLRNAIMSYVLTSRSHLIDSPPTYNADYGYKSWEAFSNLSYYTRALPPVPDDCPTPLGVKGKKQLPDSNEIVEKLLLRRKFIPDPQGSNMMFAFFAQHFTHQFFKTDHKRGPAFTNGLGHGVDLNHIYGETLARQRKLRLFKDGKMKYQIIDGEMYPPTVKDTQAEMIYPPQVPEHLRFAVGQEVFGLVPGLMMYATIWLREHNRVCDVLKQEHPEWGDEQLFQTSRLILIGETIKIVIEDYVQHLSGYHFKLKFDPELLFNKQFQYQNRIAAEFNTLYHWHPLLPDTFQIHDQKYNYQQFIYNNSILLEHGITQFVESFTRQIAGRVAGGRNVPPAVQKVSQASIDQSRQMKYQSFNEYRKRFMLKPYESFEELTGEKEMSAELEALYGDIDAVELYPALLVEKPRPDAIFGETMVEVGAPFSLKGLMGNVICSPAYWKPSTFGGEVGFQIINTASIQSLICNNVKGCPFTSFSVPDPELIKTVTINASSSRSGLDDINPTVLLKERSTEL

[2] = molecular target: T2, purified ovine COX-1 (Ovis aries, UniProt P05979); test: COX Fluorescent Inhibitor Screening Assay Kit, COX-1
T2 sequence (P05979 25-600): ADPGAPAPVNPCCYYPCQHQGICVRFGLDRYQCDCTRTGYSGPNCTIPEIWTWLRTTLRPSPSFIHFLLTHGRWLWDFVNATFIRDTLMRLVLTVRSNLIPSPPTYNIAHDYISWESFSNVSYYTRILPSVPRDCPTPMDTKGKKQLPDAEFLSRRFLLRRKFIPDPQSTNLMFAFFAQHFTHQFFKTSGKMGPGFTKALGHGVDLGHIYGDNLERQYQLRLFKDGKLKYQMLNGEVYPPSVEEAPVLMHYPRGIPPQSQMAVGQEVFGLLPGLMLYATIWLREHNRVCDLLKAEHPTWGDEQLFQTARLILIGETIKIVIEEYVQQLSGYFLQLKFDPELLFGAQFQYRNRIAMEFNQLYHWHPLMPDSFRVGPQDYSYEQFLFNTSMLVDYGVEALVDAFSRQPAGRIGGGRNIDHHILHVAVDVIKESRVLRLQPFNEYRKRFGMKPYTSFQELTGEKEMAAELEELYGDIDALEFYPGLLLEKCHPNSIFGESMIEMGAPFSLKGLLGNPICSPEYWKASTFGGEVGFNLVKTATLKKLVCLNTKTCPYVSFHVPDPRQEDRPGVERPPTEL
Description: 7.4.1 COX inhibition assay
The COX inhibition potency against ovine COX-1 and human COX-2 was determined using the
fluorescence-based COX assay ’COX Fluorescent Inhibitor Screening Assay Kit‘ (catalog number
reported by us.7 In brief, as a measure of COX mediated conversion of arachidonic acid to PG H2 in the
presence of different inhibitor concentrations this assay utilizes the peroxidase component of COX and
analyzes the formation of fluorescent resorufin. All compounds were assayed in a concentration range
of 10 nM to 100 μM, and every inhibitor concentration was assayed in duplicate.
as internal control. IC50 values were estimated using a nonlinear logistic regression ﬁtting procedure
(sigmoidal dose−response model) with Prism Software.

IC50 [1] [µM] | Selectivity index [1] | IC50 [2] [µM] | Structure (SMILES)
2.53 | 15 | 38.5 | Cc1ccc(-c2cc(CCF)nn2-c2ccc(S(C)(=O)=O)cc2)cc1 [5b]
4.97 | >20 | > 100 | CS(=O)(=O)c1ccc(-n2nc(CCF)cc2-c2ccccc2)cc1 [5c]
> 100 | – | > 100 | Cc1ccc(-c2cc(CCF)n(-c3ccc(S(C)(=O)=O)cc3)n2)cc1 [5d]
